{"source": "patent US10556865B2", "about": "“Synergistic herbicidal composition containing certain pyridine or pyrimidine carboxylic acids and certain cereal and rice herbicides” (Dow AgroSciences, LLC, priority 2007, dated 2020)", "type_in_all_cases": "in vivo", "key": {"[1]": {"system": "Canada thistle (Cirsium arvense L; CIRAR)", "assay": "Postemergence herbicidal activity of mixtures in cereal crops (greenhouse, visual injury)", "in_short": "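Weeds grown in greenhouse (~14 h photoperiod, ~18/17 °C day/night) to second–third true leaf stage, sprayed postemergence with compound and second cereal herbicide alone or combined; solvent-blank controls. Injury scored visually after 20-22 days, 0–100% (complete kill); expected mixture activity = A+B−(A×B/100).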"}, "[2]": {"system": "Eleocharis kuroguwai OHWI (ELOKU)", "assay": "Herbicidal mixtures for weed control in transplanted paddy rice (in-water application, visual % injury)", "in_short": "(§1)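 Weeds were sown in puddled mineral soil (pH about 7.3 to 7.8, about 1.0 percent organic matter) and grown under a paddy flood in a greenhouse at about 29/26° C to the second or third true leaf stage. Compounds in acetone with Agri-dex crop oil were injected into the floodwater. Injury was rated visually after 3 weeks.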"}, "[3]": {"system": "Scirpus maritimus L. (SCPMA)", "assay": "Herbicidal mixtures for weed control in transplanted paddy rice (in-water application, visual % injury)", "in_short": "as §1"}, "[4]": {"system": "Polygonum persicaria L. (POLPE)", "assay": "Postemergence herbicidal mixtures for weed control in direct seeded rice (greenhouse, visual % injury)"}, "[5]": {"system": "Brachiaria platyphylla (BRISEB.) NASH (BRAPP)", "assay": "Postemergence herbicidal mixtures for weed control in direct seeded rice (greenhouse, visual % injury)"}, "[6]": {"system": "Ipomoea hederacea (L.) JACQ. (IPOHE)", "assay": "Postemergence herbicidal mixtures for weed control in direct seeded rice (greenhouse, visual % injury after 3 weeks)", "settings": "for % Injury Ob: IPOHE"}, "[7]": {"system": "Scirpus maritimus L. (SCPMA)", "assay": "Postemergence herbicidal mixtures for weed control in direct seeded rice (greenhouse, visual % injury)", "settings": "SCPMA"}, "[8]": {"system": "Polygonum pensylvanicum L. (POLPY)", "assay": "Postemergence herbicidal mixtures for weed control in direct seeded rice (greenhouse, visual % injury)", "settings": "for % Injury Ob: POLPY"}}, "note": "Where “and” joins values, the source holds several entries; their conditions need not be identical. Equal entries are not always repeated.", "data": [{"smiles": "COc1c(Cl)ccc(-c2cc(N)c(Cl)c(C(=O)O)n2)c1F", "note": "[Compound A TEA, 4-amino-3-chloro-6-(4-chloro-2-fluoro-3-methoxyphenyl)pyridine-2-carboxylic acid]", "values": [{"measurement": "CIRAR Ob", "setting": "[1]; 35 g/ha", "value": 50, "unit": "%"}, {"measurement": "CIRAR Ob", "setting": "[1]; 70 g/ha", "value": 60, "unit": "%"}, {"measurement": "CIRAR Ob", "setting": "[1]; 140 g/ha", "value": 65, "unit": "%"}, {"measurement": "% Injury Ob", "setting": "[2]; 35 g/ha alone", "value": 30, "unit": "%"}, {"measurement": "% Injury Ob", "setting": "[2]; 70 g/ha alone", "value": 20, "unit": "%"}, {"measurement": "% Injury Ob", "setting": "[3]; 35 g/ha alone", "value": 0, "unit": "%"}, {"measurement": "% Injury Ob", "setting": "[3]; 70 g/ha alone", "value": 50, "unit": "%"}]}, {"smiles": "COC(=O)c1nc(-c2ccc(Cl)c(OC)c2F)cc(N)c1Cl", "note": "[Compound A Methyl, 4-amino-3-chloro-6-(4-chloro-2-fluoro-3-methoxyphenyl)pyridine-2-carboxylic acid methyl ester]", "values": [{"measurement": "% Injury POLPE Ob", "setting": "[4]; alone 8.75 g/ha", "value": 50, "unit": "%"}, {"measurement": "% Injury POLPE Ob", "setting": "[4]; alone 17.5 g/ha", "value": 90, "unit": "%"}, {"measurement": "% Injury Ob", "setting": "[5]; 4.38 g/ha alone", "value": 60, "unit": "%"}, {"measurement": "% Injury Ob", "setting": "[5]; 8.75 g/ha alone", "value": 60, "unit": "%"}, {"measurement": "% Injury Ob", "setting": "[6]; 4.38 g/ha alone", "value": 20, "unit": "%"}, {"measurement": "% Injury Ob", "setting": "[6]; 8.75 g/ha alone", "value": 40, "unit": "%"}, {"measurement": "% Injury Ob", "setting": "[6]; 17.5 g/ha alone", "value": 75, "unit": "%"}, {"measurement": "% Injury IPOHE Ob", "setting": "[6]; alone 4.38 g/ha", "value": "10% and 0%"}, {"measurement": "% Injury IPOHE Ob", "setting": "[6]; alone 17.5 g/ha", "value": "85% and 75%"}, {"measurement": "% Injury Ob", "setting": "[7]; 4.38 g/ha alone", "value": 0, "unit": "%"}, {"measurement": "% Injury Ob", "setting": "[7]; 8.75 g/ha alone", "value": 10, "unit": "%"}, {"measurement": "% Injury Ob", "setting": "[8]; 4.38 g/ha alone", "value": 10, "unit": "%"}, {"measurement": "% Injury Ob", "setting": "[8]; 8.75 g/ha alone", "value": 50, "unit": "%"}, {"measurement": "% Injury POLPY Ob", "setting": "[8]; alone 4.38 g/ha", "value": 50, "unit": "%"}, {"measurement": "% Injury POLPY Ob", "setting": "[8]; alone 8.75 g/ha", "value": 60, "unit": "%"}]}]}
